Results as given in patent US11312727B1, “Macrocyclic flu endonuclease inhibitors” (Janssen BioPharma, Inc., priority 2018, dated 2022).

What was measured:
[1] = test system: Influenza strain A549 A/WSN/33 (H1N1); assay: microbe, parasite or virus in culture; assay type: cell-based; settings: Influenza A virus, A549, 20 h, A549 cells, influenza A/WSN/33 (H1N1), 20 hours incubation; read-out: A549_A(H1N1) EC50
[2] = in vitro; settings: human, CC50, uninfected A549 cells, CellTiter-Glo

Row | SMILES | EC50 [1] | CC50 [2]
1 | O=C1c2c(O)c(=O)ccn2N2CN1CC[C@H]1C[C@H]1COc1cccc3c1C2c1ccccc1SC3 (single isomer, unassigned) [Compound 144BB, (1*S,13*R,15*R)-7-hydroxy-17-oxa-24-thia-2,3,10-triazaheptacyclo[16.12.1.12,10.03,8.013,15.022,31.025,30]dotriaconta-4,18,20,22(31),25(30),26,28-heptaene-6,9-dione] | 51.3 nM | > 4000 nM
2 | CC[C@@H]1C/C=C/COc2c(F)cccc2[C@H](c2ccccc2)N2CN1C(=O)c1c(O)c(=O)ccn12 (single isomer, unassigned) [Compound 105BB, (2*S,9*R,*E)-9-ethyl-33-fluoro-15-hydroxy-2-phenyl-12,13,14,16-tetrahydro-11H-4-oxa-1(1,3)-pyrido[2,1-f][1,2,4]triazina-3(1,2)-benzenacyclononaphan-6-ene-14,16-dione] | > 100 nM | > 200 nM
3 | O=C1c2c(O)c(=O)ccn2N2CN1CCC/C=C\c1ccccc1[C@@H]2c1ccccc1 (single isomer, unassigned) [Compound 54B, (16*S,*Z)-4-hydroxy-16-phenyl-7,8,9,16-tetrahydro-6,17-methanobenzo[k]pyrido[1,2-b][1,2,5]triazacyclotridecine-3,5-dione] | 33 nM | > 2000 nM
4 | O=C1c2c(O)c(=O)ccn2N2CN1C/C=C\COc1cccnc1[C@@H]2c1ccccc1 (single isomer, unassigned) [Compound 27B, (18*S,*Z)-12-hydroxy-18-phenyl-6,9-dihydro-18H-10,17-methanodipyrido[3,2-b:1′,2′-f][1]oxa[5,6,9]triazacyclotridecine-11,13-dione] | 45700 nM | > 20000 nM
5 | CC[C@H]1/C=C/COc2c(F)cccc2[C@H](c2ccccn2)N2CN1C(=O)c1c(O)c(=O)ccn12 (single isomer, unassigned) [Compound 154BB, (9*S,18*R,*E)-9-ethyl-4-fluoro-12-hydroxy-18-(pyridin-2-yl)-6,9-dihydro-18H-10,17-methanobenzo[b]pyrido[1,2-f][1]oxa[5,6,9]triazacyclotridecine-11,13-dione] | 3.4 nM | > 100 nM
6 | O=C1c2c(O)c(=O)ccn2N2CN1C1(/C=C/COc3c(ccc(F)c3F)[C@@H]2c2ccccc2)CCC1 [Compound 146B, (18'S,E)-3′,4′-difluoro-12′-hydroxy-18′-phenyl-6′H,18′H-spiro[cyclobutane-1,9′-[10,17]methanobenzo[b]pyrido[1,2-f][1]oxa[5,6,9]triazacyclotridecine]-11′,13′-dione] | 340 nM | > 10000 nM
7 | O=C1c2c(O)c(=O)ccn2N2CN1[C@@H](C(F)F)/C=C/COc1cccc3c1[C@@H]2c1ccccc1SC3 (single isomer, unassigned) [Compound 163BA, (9*R,17a*R,*E)-9-(difluoromethyl)-12-hydroxy-2,6,9,17a-tetrahydro-3,4-(epiprop[1]en[1]yl[3]ylidene)-10,17-methanobenzo[6,7]thiepino[4,5-c]pyrido[1,2-f][1]oxa[5,6,9]triazacyclotridecine-11,13-dione] | > 50 nM | > 100 nM
8 | O=C1c2c(O)c(=O)ccn2N2CN1CCCCCc1ccccc1C2c1ccccn1 (stereo not drawn) [Compound 12, 4-hydroxy-16-(pyridin-2-yl)-7,8,9,10,11,16-hexahydro-6,17-methanobenzo[k]pyrido[1,2-b][1,2,5]triazacyclotridecine-3,5-dione] | 86 nM | > 2000 nM
9 | C[C@H]1/C=C/COc2c(F)cccc2[C@@H](c2ccccc2)N2CN1C(=O)c1c(O)c(=O)ccn12 (single isomer, unassigned) [Compound 141AB, (9*S,18*R,E)-4-fluoro-12-hydroxy-9-methyl-18-phenyl-6,9-dihydro-18H-10,17-methanobenzo[b]pyrido[1,2-f][1]oxa[5,6,9]triazacyclotridecine-11,13-dione] | 2 nM | > 50 nM
10 | O=C1c2c(O)c(=O)ccn2N2CN1C/C=C\COc1cc(F)c(F)c3c1[C@@H]2c1ccccc1SC3 (single isomer, unassigned) [Compound 140C, (21a*R,*Z)-24,25-difluoro-16-hydroxy-6,10,13,21a-tetrahydro-7,8-(epiprop[1]en[1]yl[3]ylidene)-14,21-methanobenzo[6,7]thiepino[4,5-c]pyrido[1,2-f][1]oxa[5,6,9]triazacyclotridecine-15,17-dione] | 37.4 nM | > 10000 nM
11 | O=C1c2c(O)c(=O)ccn2N2CN1[C@H](C1CC1)/C=C/COc1c(ccc(F)c1F)[C@H]2c1ccccc1 (single isomer, unassigned) [Compound 152BB, (9*R,18*R,*E)-9-cyclopropyl-3,4-difluoro-12-hydroxy-18-phenyl-6,9-dihydro-18H-10,17-methanobenzo[b]pyrido[1,2-f][1]oxa[5,6,9]triazacyclotridecine-11,13-dione] | 1.8 nM | > 200 nM
12 | O=C1c2c(O)c(=O)ccn2N2CN1CC[C@@H]1C[C@H]1COc1cccc3c1[C@@H]2c1ccccc1SC3 (single isomer, unassigned) [Compound 131AA, (1*R,13*S,15*R)-7-hydroxy-17-oxa-24-thia-2,3,10-triazaheptacyclo[16.12.1.12,10.03,8.013,15.022,31.025,30]dotriaconta-4,18,20,22(31),25(30),26,28-heptaene-6,9-dione] | 4.7 nM | > 200 nM
13 | COC[C@@H]1/C=C/COc2c(ccc(F)c2F)[C@H](c2ccccc2)N2CN1C(=O)c1c(O)c(=O)ccn12 (single isomer, unassigned) [Compound 153AA, (9*S,18*S,*E)-3,4-difluoro-12-hydroxy-9-(methoxymethyl)-18-phenyl-6,9-dihydro-18H-10,17-methanobenzo[b]pyrido[1,2-f][1]oxa[5,6,9]triazacyclotridecine-11,13-dione] | > 50 nM | > 100 nM
14 | O=C1c2c(O)c(=O)ccn2N2CN1C1(/C=C/COc3c(ccc(F)c3F)[C@@H]2c2ccccc2)CC1 [Compound 102B, (18'S,E)-3′,4′-difluoro-12′-hydroxy-18′-phenyl-6′H,18′H-spiro[cyclopropane-1,9′-[10,17]methanobenzo[b]pyrido[1,2-f][1]oxa[5,6,9]triazacyclotridecine]-11′,13′-dione] | 3360 nM | 33900 nM
15 | O=C1c2c(O)c(=O)ccn2N2CN1CCCCCOc1ccccc1C2c1ccccc1 (stereo not drawn) [Compound 9, 15-hydroxy-2-phenyl-12,13,14,16-tetrahydro-11H-4-oxa-1(1,3)-pyrido[2,1-f][1,2,4]triazina-3(1,2)-benzenacyclononaphane-14,16-dione] | 453 nM | > 2000 nM
16 | O=C1c2c(O)c(=O)ccn2N2CN1C1(/C=C/COc3c(ccc(Cl)c3Cl)[C@@H]2c2ccccc2)CC1 (single isomer, unassigned) [Compound 113B, (18′*S,*E)-3′,4′-dichloro-12′-hydroxy-18′-phenyl-6′H,18′H-spiro[cyclopropane-1,9′-[10,17]methanobenzo[b]pyrido[1,2-f][1]oxa[5,6,9]triazacyclotridecine]-11′,13′-dione] | 2 nM | > 200 nM
17 | O=C1c2c(O)c(=O)ccn2N2CN1C1(/C=C/COc3cc(F)c(F)c4c3[C@@H]2c2ccccc2SC4)CC1 (single isomer, unassigned) [Compound 108A, (17a′*R,*E)-24′,25′-difluoro-12′-hydroxy-2′,17a′-dihydro-6′H-spiro[cyclopropane-1,9′-[3,4](epiprop[1]en[1]yl[3]ylidene)[10,17]methanobenzo[6,7]thiepino[4,5-c]pyrido[1,2-f][1]oxa[5,6,9]triazacyclotridecine]-11′,13′-dione] | 840 nM | 22600 nM
18 | O=C1c2c(O)c(=O)ccn2N2CN1C[C@@H]1C[C@H]1COc1c(ccc(F)c1F)[C@@H]2c1ccccc1 (single isomer, unassigned) [Compound 139AB, (1a*R,8*S,17a*R)-4,5-difluoro-14-hydroxy-8-phenyl-1a,2,17,17a-tetrahydro-1H,8H-9,16-methanobenzo[b]cyclopropa[k]pyrido[1,2-f][1]oxa[5,6,9]triazacyclotridecine-13,15-dione] | 4890 nM | 35900 nM
19 | O=C1c2c(O)c(=O)ccn2N2CN1CC/C=C/COc1c(ccc(F)c1F)[C@@H]2c1ccccc1 (single isomer, unassigned) [Compound 112A, (2*S,E)-33,34-difluoro-15-hydroxy-2-phenyl-12,13,14,16-tetrahydro-11H-4-oxa-1(1,3)-pyrido[2,1-f][1,2,4]triazina-3(1,2)-benzenacyclononaphan-6-ene-14,16-dione] | 3.8 nM | > 200 nM
20 | O=C1c2c(O)c(=O)ccn2N2CN1CCCCCOc1cccc3c1C2c1ccccc1SC3 (stereo not drawn) [Compound 48] | 32 nM | > 2000 nM
21 | O=C1c2c(O)c(=O)ccn2N2CN1C/C=C\CCc1ccncc1[C@H]2c1ccccc1 (single isomer, unassigned) [Compound 35A, (18*R,*Z)-12-hydroxy-18-phenyl-5,6,9,18-tetrahydro-10,17-methanodipyrido[1,2-b:4′,3′-k][1,2,5]triazacyclotridecine-11,13-dione] | 69 nM | > 2000 nM
22 | C[C@@H]1/C=C\COc2cccc3c2[C@H](c2ccccc2SC3)N2CN1C(=O)c1c(O)c(=O)ccn12 (single isomer, unassigned) [Compound 138BB, (13*R,21a*R,Z)-16-hydroxy-13-methyl-6,10,13,21a-tetrahydro-7,8-(epiprop[1]en[1]yl[3]ylidene)-14,21-methanobenzo[6,7]thiepino[4,5-c]pyrido[1,2-f][1]oxa[5,6,9]triazacyclotridecine-15,17-dione] | > 100 nM | > 200 nM
23 | O=C1c2c(O)c(=O)ccn2N2CN1CCCCOc1ccccc1[C@@H]2c1ccccc1 [Compound 8B, (18S)-12-hydroxy-18-phenyl-6,7,8,9-tetrahydro-18H-10,17-methanobenzo[b]pyrido[1,2-f][1]oxa[5,6,9]triazacyclotridecine-11,13-dione] | 4130 nM | > 2000 nM
24 | O=C1c2c(O)c(=O)ccn2N2CN1C[C@H]1C[C@@H](COc3cccc4c3[C@@H]2c2ccccc2SC4)C1 (single isomer, unassigned) [Compound 161A] | > 50 nM | > 100 nM
